Tests used:
[1] = target: T1, PARG (Homo sapiens, UniProt Q86W56); experiment: Enzymatic inhibitory activity against PARG, HTRF assay; type: biochemical; details: HTRF; PARylated PARP1 protein as substrate; 60 minutes at room temperature; read-out: IC50 against PARG enzyme
T1 construct: made in house
Procedure: In this experiment, the enzymatic inhibitory activity of the compounds of the present disclosure against PARG was determined using an HTRF (homogeneous time-resolved fluorescence) assay.
HTRF assay reagents were purchased from PerkinElmer (Cat. Nos. 61HISTLB and 610SAXLB). The purified protein was prepared in-house.
PARG enzyme reaction buffer: 50 mM Tris (pH 7.4), 0.1 mg/mL BSA, 3 mM EDTA, 0.4 mM EGTA, 1 mM DTT, 50 mM KCl, and 0.01% Tween 20.
• 1) Using an ultra-micro pipette, the compounds of the present disclosure were serially diluted (starting at 10 µM with 3- to 5-fold serial dilutions) and added to a 384-well reaction plate, with each concentration tested in duplicate wells. Control group 1 was added with 10 µM control compound (100% inhibition group). Control group 2 was added with DMSO (0% inhibition group). After compound addition, the 384-well plate was centrifuged at 1000 rpm for 1 minute. • 2) 2.5 µL of PARG protein was added to each well and incubated with the compounds of the present disclosure at room temperature for 15 minutes, followed by centrifugation at 1000 rpm for 1 minute. • 3) 2.5 µL of PARylated PARP1 protein was added to each well and incubated at room temperature for 60 minutes, followed by centrifugation at 1000 rpm for 1 minute. • 4) 5 µL of His-Tb & SA-XL665 HTRF assay reagents were added to each well and incubated at room temperature for 60 minutes, followed by centrifugation at 1000 rpm for 1 minute. • 5) […] were measured using a PHERAstar FSX microplate reader from BMG. • 6) Data analysis was performed using GraphPad Prism 8. The IC50 values of the compounds of the present disclosure were calculated as follows. […] The average value of duplicate wells in control group 2 (0% inhibition group) was set as the relative inhibition rate of 0%. The HTRF signal values were converted into relative inhibition rates. The IC50 values of the compounds were calculated by fitting the data to a four-parameter logistic model. Table 15: Enzymatic inhibitory activity of the compounds of the present disclosure against PARG

[2] = tested on: KURAMOCHI cells; experiment: Inhibition of proliferation of KURAMOCHI cells (CellTiter-Glo, intracellular ATP); type: cell-based; details: 168 h, incubated for 7 days, read-out: IC50 against KURAMOCHI cells
Procedure: In this experiment, the inhibitory effect of the compounds of the present disclosure on the proliferation of the cancer cell line KURAMOCHI was evaluated by measuring intracellular ATP levels using a bioluminescent assay, and the half maximal inhibitory concentration (IC50) was determined.
RPMI 1640 medium (Cat. No. 11875-093), fetal bovine serum (10099-141), and 100× Pen/Strep (15070-063) were purchased from GIBCO. CellTiter-Glo Luminescent Cell Viability Assay reagent (Cat. No. G7573) was purchased from Promega.
• 1) Day 1: KURAMOCHI cells were counted using a cell counter and seeded into a 96-well culture plate at a density of 4000 cells per well in 100 µL medium. The plate was incubated overnight in an incubator (37°C, 5% CO2). • 2) Day 2: Using a D300e digital dispenser (TECAN), 500 nL of serially diluted test compounds of the present disclosure (starting at 10 µM, a total of 9 concentrations, 1:4 dilution) were added to the cells in the culture plate. The final concentration of DMSO was 0.5%. The cell culture plate was incubated for 7 days in a cell culture incubator (37°C, 5% CO2). Control group 1 received only medium and DMSO (100% inhibition group). Control group 2 received only DMSO (0% inhibition group). The final concentration of DMSO in both groups was 0.5%. • 3) Day 9: 100 µL of CellTiter-Glo reagent was added to each well. The plate was shaken at 500 rpm for 2 minutes, centrifuged at 1000 rpm for 1 minute, and then incubated at room temperature in the dark for 10 minutes to stabilize the luminescence signal. • 4) Luminescence signals were measured using an EnVision microplate reader (PerkinElmer). • 5) Data analysis was performed using GraphPad Prism 8. The IC50 values of the compounds of the present disclosure were calculated as follows. The CTG signal values were analyzed. The average inhibition rate of control group 1 (100% inhibition group) was set as the relative inhibition rate of 100%. The average inhibition rate of control group 2 (0% inhibition group) was set as the relative inhibition rate of 0%. The CTG signal values were converted into relative inhibition rates. The inhibition percentage (inhibition%) for each concentration of the compounds of the present disclosure was calculated according to the following formula: Inhibition% = (b−x)/(b−a)*100%; [formula] • a = CTG value (highest concentration), b = CTG value (blank well), x = CTG value (test well). • IC50 was calculated using GraphPad Prism 8. • (1) The concentration and inhibition rate corresponding to each well were recorded. Statistical calculation was performed using Log10 (compound concentration). • (2) The data were input into GraphPad Prism 8 and Analysis was selected. • (3) Nonlinear regression (curve fit) was selected. • (4) Log (inhibitor) vs. response - Variable slope was selected. • (5) The calculation formula was selected, and the calculation was performed according to the following formula: Y = Bottom + (Top - Bottom) / (1 + 10 ^ ((LogIC50 - X) * HillSlope)); X: log of dose or concentration; Y: response; Top and Bottom: maximum and minimum response. • (6) The IC50 values were calculated by fitting the data. Table 16: Inhibitory effect of the compounds of the present disclosure on the proliferation of KURAMOCHI cells

T1 sequence (Q86W56 whole entry): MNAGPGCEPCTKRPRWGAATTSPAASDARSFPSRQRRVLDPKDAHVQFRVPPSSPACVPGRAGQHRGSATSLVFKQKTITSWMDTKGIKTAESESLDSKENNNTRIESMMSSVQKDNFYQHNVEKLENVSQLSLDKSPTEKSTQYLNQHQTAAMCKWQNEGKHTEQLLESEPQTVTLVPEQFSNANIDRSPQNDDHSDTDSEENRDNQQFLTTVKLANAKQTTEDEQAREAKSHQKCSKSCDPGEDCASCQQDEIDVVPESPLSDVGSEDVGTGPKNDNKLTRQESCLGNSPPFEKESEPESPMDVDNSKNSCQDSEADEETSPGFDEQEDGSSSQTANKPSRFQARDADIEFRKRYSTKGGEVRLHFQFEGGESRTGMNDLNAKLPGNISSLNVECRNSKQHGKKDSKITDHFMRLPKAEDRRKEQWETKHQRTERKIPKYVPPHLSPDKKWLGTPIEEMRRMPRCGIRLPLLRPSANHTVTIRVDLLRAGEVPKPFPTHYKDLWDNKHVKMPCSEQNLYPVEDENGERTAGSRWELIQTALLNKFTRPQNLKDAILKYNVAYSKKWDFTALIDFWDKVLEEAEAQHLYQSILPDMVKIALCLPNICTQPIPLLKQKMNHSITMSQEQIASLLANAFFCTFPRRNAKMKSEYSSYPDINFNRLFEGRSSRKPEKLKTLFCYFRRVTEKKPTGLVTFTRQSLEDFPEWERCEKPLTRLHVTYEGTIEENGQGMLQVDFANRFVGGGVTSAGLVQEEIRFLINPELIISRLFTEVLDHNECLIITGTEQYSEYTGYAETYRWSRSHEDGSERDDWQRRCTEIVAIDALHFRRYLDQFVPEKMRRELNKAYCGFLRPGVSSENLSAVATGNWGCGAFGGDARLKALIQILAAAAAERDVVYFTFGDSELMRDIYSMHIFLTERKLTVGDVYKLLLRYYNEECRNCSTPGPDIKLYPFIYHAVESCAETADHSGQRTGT

| Compound | IC50 [1] [nM] | IC50 [2] [nM] |
| --- | --- | --- |
| CC(C)Oc1nc2c(N3CCN(C(=O)C(C)C)CC3)cc(S(=O)(=O)NC3(C#N)CC3)cc2n1-c1nnc(C(F)F)s1 [Compound 057L] | 8.6 | 8 |
| CN(C)C(=O)N1CCN(c2cc(S(=O)(=O)NC3(C#N)CC3)cc3c2nc(OC2CC2)n3-c2nnc(C(F)F)s2)CC1 [Compound 057M] | 2.8 | 6 |
| CC(C)C(=O)N1CCN(c2cc(S(=O)(=O)NC3(C#N)CC3)cc3c2nc(OC2COC2)n3-c2nnc(C(F)F)s2)CC1 [Compound 057N] | 8.3 | 9 |
| CC(C)C(=O)N1CCN(c2cc(S(=O)(=O)NC3(C#N)CC3)cc3c2nc(OC2CC2)n3-c2nnc(C(F)F)s2)CC1 [Compound 057Q] | 5.1 | 7 |
| CN(C)C(=O)N1CCC(c2cc(S(=O)(=O)NC3(C#N)CC3)cc3c2ncn3-c2nnc(C(F)F)s2)CC1 [Compound 059C] | 6.5 | 20 |
| CC(C)C(=O)N1CCC(c2cc(S(=O)(=O)NC3(C#N)CC3)cc3c2ncn3-c2nnc(C(F)F)s2)CC1 [Compound 059D] | 28.8 | 40 |
| C[C@H]1CN(c2cc(S(=O)(=O)NC3(CF)CC3)cc3c2c2nccnc2n3-c2nnc(C(F)F)s2)C[C@H](C)N1 [Compound 065I] | 1.8 | 5 |
| [2H]C([2H])([2H])C1(NS(=O)(=O)c2cc(N3C[C@H](C)N[C@@H](C)C3)c3c4nccnc4n(-c4nnc(C(F)F)s4)c3c2)CC1 [Compound 065J] | 2.4 | 7 |
| C[C@H]1CN(c2cc(S(=O)(=O)NC3(C#N)CC3)cc3c2c2nccnc2n3-c2nnc(C(F)F)s2)C[C@H](C)N1 [Compound 065K] | 6.3 | 22 |
| C[C@H]1CN(c2cc(S(=O)(=O)NC3(C)COC3)cc3c2c2nccnc2n3-c2nnc(C(F)F)s2)C[C@H](C)N1 [Compound 065L] | 5.5 | 18 |
| C[C@H]1CN(c2cc(S(=O)(=O)NC3(C#N)CC3)cc3c2n2ncnc2n3-c2nnc(C(F)F)s2)C[C@H](C)N1 [Compound 065N] | 7.3 | 9 |
| [2H]C([2H])([2H])C1(NS(=O)(=O)c2cc(N3C[C@H](C)N[C@@H](C)C3)c3c(c2)n(-c2nnc(C(F)F)s2)c2ncnn32)CC1 [Compound 065O] | 3.1 | 3 |
| C[C@H]1CN(c2cc(S(=O)(=O)NC3(C)COC3)cc3c2n2ncnc2n3-c2nnc(C(F)F)s2)C[C@H](C)N1 [Compound 065P] | 5.8 | 7 |
| C[C@H]1CN(c2cc(S(=O)(=O)NC3(C)CC3)cc3c2n2nc(C(C)(C)O)nc2n3-c2nnc(C(F)F)s2)C[C@H](C)N1 [Compound 065T] | 1.5 | 13 |
| COCc1nc2n(-c3nnc(C(F)F)s3)c3cc(S(=O)(=O)NC4(C)CC4)cc(N4C[C@H](C)N[C@@H](C)C4)c3n2n1 [Compound 065U] | 0.5 | 2 |
| C[C@H]1CN(c2cc(S(=O)(=O)NC3(C)CC3)cc3c2n2nc(Cl)nc2n3-c2nnc(C(F)F)s2)C[C@H](C)N1 [Compound 065X] | 0.5 | 4 |

| Compound | IC50 [1] [nM] | IC50 [2] [nM] |
| --- | --- | --- |
| CC(C)c1nc2n(-c3nnc(C(F)F)s3)c3cc(S(=O)(=O)NC4(C)CC4)cc(N4C[C@H](C)N[C@@H](C)C4)c3n2n1 [Compound 065Y] | 0.8 | 6 |
| C[C@H]1CN(c2cc(S(=O)(=O)NC3(C)CC3)cc3c2n2nc(C4CC4)nc2n3-c2nnc(C(F)F)s2)C[C@H](C)N1 [Compound 065Z] | 1 | 4 |
| C=CCn1c(=O)n(-c2nnc(C(F)F)s2)c2cc(S(=O)(=O)NC3(C#N)CC3)cc(N3CCN(C(=O)N4CCC4)CC3)c21 [Compound 067B] | 6.9 | 15 |
| C=CCn1c(=O)n(-c2nnc(C(F)F)s2)c2cc(S(=O)(=O)NC3(C#N)CC3)cc(N3CCN(C(=O)N4CCOCC4)CC3)c21 [Compound 067G] | 8.7 | 26 |
| C=CCn1c(=O)n(-c2nnc(C(F)F)s2)c2cc(S(=O)(=O)NC3(C#N)CC3)cc(N3CCN(c4nccn4C)CC3)c21 [Compound 067J] | 7.8 | 21 |
| [2H]C([2H])([2H])OC(C)(C)C(=O)N1CCN(c2cc(S(=O)(=O)NC3(C#N)CC3)cc3c2n(CC=C)c(=O)n3-c2nnc(C(F)F)s2)CC1 [Compound 067LD] | 2.2 | 5 |
| C=CCn1c(=O)n(-c2nnc(C(F)F)s2)c2cc(S(=O)(=O)NC3(C#N)CC3)cc(N3CCN(C(=O)C(C)(C)OC)CC3)c21 [Compound 067L] | 4.9 | 4 |
| [2H]C([2H])([2H])OC1(C(=O)N2CCN(c3cc(S(=O)(=O)NC4(C#N)CC4)cc4c3n(CC=C)c(=O)n4-c3nnc(C(F)F)s3)CC2)CC1 [Compound 067ND] | 2.3 | 3 |
| C=CCn1c(=O)n(-c2nnc(C(F)F)s2)c2cc(S(=O)(=O)NC3(C#N)CC3)cc(N3CCN(C(=O)C4(OC)CC4)CC3)c21 [Compound 067N] | 3.1 | 3 |
| C=CCn1c(=O)n(-c2nnc(C(F)F)s2)c2cc(S(=O)(=O)NC3(C#N)CC3)cc(N3CCN(C(=O)C(C)(C)N)CC3)c21 [Compound 067P] | 5.2 | 74 |
| C=CCn1c(=O)n(-c2nnc(C(F)F)s2)c2cc(S(=O)(=O)NC3(C#N)CC3)cc(N3CCN(C(=O)C(C)(C)NC)CC3)c21 [Compound 067Q] | 5 | 13 |
| C=CCn1c(=O)n(-c2nnc(C(F)F)s2)c2cc(S(=O)(=O)NC3(C#N)CC3)cc(N3CCN(S(=O)(=O)C4CC4)CC3)c21 [Compound 067R] | 3.4 | 6 |
| C=CCn1c(=O)n(-c2nnc(C(F)F)s2)c2cc(S(=O)(=O)NC3(C#N)CC3)cc(N3CCN(C(=O)C4CC4)CC3)c21 [Compound 067S] | 13.3 | 14 |
| C=CCn1c(=O)n(-c2nnc(C(F)F)s2)c2cc(S(=O)(=O)NC3(C#N)CC3)cc(N3CCN(C(=O)C(C)(C)C)CC3)c21 [Compound 067T] | 16 | 11 |
| C=CCn1c(=O)n(-c2nnc(C(F)F)s2)c2cc(S(=O)(=O)NC3(C#N)CC3)cc(N3CCN(C(=O)C4CCC4)CC3)c21 [Compound 067U] | 20 | 21 |
| C=CCn1c(=O)n(-c2nnc(C(F)F)s2)c2cc(S(=O)(=O)NC3(C#N)CC3)cc(N3CCN(C(=O)C4COC4)CC3)c21 [Compound 067V] | 13.4 | 83 |

Source: EP4800013A1, “PARG INHIBITOR” (Shanghai Qilu Pharmaceutical Research and Development …, priority 2023, dated 2025)
